Here are results for 31 compounds from PMC8286840, “Identifying SARS-CoV-2 antiviral compounds by screening for small molecule inhibitors of Nsp3 papain-like protease” (Biochemical Journal, 2021).

In test [1] the target is T1, SARS-CoV-2 PLpro (nsp3 1564–1878) (Severe acute respiratory syndrome coronavirus 2, UniProt P0DTD1). The test is described as follows: biochemical. More on the design: FRET-quenched peptide (Pro3) cleavage by PLpro, 10 min pre-incubation, slope over 20 min, normalised to no-compound control. The conditions noted are these: read-out: % of control remaining.
Test [2] addresses T1, SARS-CoV-2 PLpro (nsp3 1564–1878). Kind of test: biochemical. More on the design: FRET-quenched peptide (Pro3) cleavage by PLpro, 10 min pre-incubation, slope over 20 min, normalised to no-compound control. The conditions noted are these: read-out: % of control remaining. This is another data set of the same source.

Molecules are shown by their SMILES. Where a name gives a salt, the structure may show the parent alone. Read-outs that look alike come from different tables or passages of the source.

In the case of `CCn1c(=O)c2c(nc(/C=C/c3ccc(OC)c(OC)c3)n2C)n(CC)c1=O` [Istradefylline (KW-6002)], the remaining activity at 1.25 µM in test [1] (Well no.=5121, low concentration screen) stood at 106%. The remaining activity at 3.75 µM in test [2] (Well no.=5121, high concentration screen) is 110%.

Regarding `CCn1c(=O)c2c(nc(/C=C/c3ccc(OC)c(OC)c3)n2C)n(CC)c1=O` [Istradefylline], the remaining activity at 1.25 µM in test [1] (Well no.=6903, low concentration screen) came to 98.1%; in test [1] (Well no.=8461, low concentration screen), 109%. Moreover, the remaining activity at 3.75 µM came to 99.6% in test [2] (Well no.=6903, high concentration screen) and 101% in test [2] (Well no.=8461, high concentration screen).

Turning to `COc1ccc(C(=O)NCc2ccc(OCCN(C)C)cc2)cc1OC` [Itopride], in test [1] (Well no.=2226, low concentration screen), the remaining activity at 1.25 µM was 87.9%. Besides, the remaining activity at 3.75 µM in test [2] (Well no.=2226, high concentration screen) worked out at 88.2%.

Turning to `COc1cc2c(cc1OC)CC(=O)N(CCCN(C)C[C@H]1Cc3cc(OC)c(OC)cc31)CC2` [Ivabradine (hydrochloride)], the remaining activity at 1.25 µM in test [1] (Well no.=7625, low concentration screen) was found to be 99.3%. Moreover, the remaining activity at 3.75 µM in test [2] (Well no.=7625, high concentration screen) stood at 94.7%.

Consider `COc1cc2c(cc1OC)CC(=O)N(CCCN(C)C[C@H]1Cc3cc(OC)c(OC)cc31)CC2` [Ivabradine hydrochloride], for which the remaining activity at 1.25 µM in test [1] (Well no.=5419, low concentration screen) was 104%. Further, in test [2] (Well no.=5419, high concentration screen), the remaining activity at 3.75 µM is 106%.

Regarding `CC(C)(C)c1cc(C(C)(C)C)c(NC(=O)c2c[nH]c3ccccc3c2=O)cc1O` [Ivacaftor (VX-770)], the remaining activity at 1.25 µM in test [1] (Well no.=5055, low concentration screen) came to 105%. In test [2] (Well no.=5055, high concentration screen), the remaining activity at 3.75 µM came to 102%.

Take `N#Cc1ccnc(N2C(=O)CC[C@H]2C(=O)N(c2cncc(F)c2)[C@H](C(=O)NC2CC(F)(F)C2)c2ccccc2Cl)c1` [Ivosidenib (AG-120)]: the remaining activity at 1.25 µM in test [1] (Well no.=8630, low concentration screen) is 95.1%. Also, in test [2] (Well no.=8630, high concentration screen), the remaining activity at 3.75 µM amounted to 92.7%.

With `C/C(=C\c1csc(C)n1)[C@@H]1C[C@@H]2O[C@]2(C)CCC[C@H](C)[C@H](O)[C@@H](C)C(=O)C(C)(C)[C@@H](O)CC(=O)N1` [Ixabepilone], the remaining activity at 1.25 µM in test [1] (Well no.=6934, low concentration screen) turned out to be 108%. Also, the remaining activity at 3.75 µM in test [2] (Well no.=6934, high concentration screen) is 107%.

As to `CC(C)N(CCC(=O)c1ccc2ccccc2c1)Cc1ccccc1` [JAK3 Inhibitor IV], the remaining activity at 1.25 µM in test [1] (Well no.=2459, low concentration screen) stood at 94%. Besides, the remaining activity at 3.75 µM in test [2] (Well no.=2459, high concentration screen) came to 93.9%.

Take `CC(C)(C)c1nc2c3cc[nH]c(=O)c3c3cc(F)ccc3c2[nH]1` [JAK Inhibitor I]: the remaining activity at 1.25 µM in test [1] (Well no.=2455, low concentration screen) worked out at 101%. Also, in test [2] (Well no.=2455, high concentration screen), the remaining activity at 3.75 µM came out at 103%.

In the case of `CC(C)[C@H](N=C(NS(=O)(=O)c1ccc(Cl)cc1)N1C[C@H](c2ccccc2)C(c2ccc(Cl)cc2)=N1)C(N)=O` [JD-5037], in test [1] (Well no.=8487, low concentration screen), the remaining activity at 1.25 µM amounted to 97.2%. In addition, the remaining activity at 3.75 µM in test [2] (Well no.=8487, high concentration screen) is 82.1%.

For the compound `CC(C)[C@@H](CN1CC[C@@](C)(c2cccc(O)c2)[C@@H](C)C1)NC(=O)[C@H]1Cc2ccc(O)cc2CN1` [JDTic (dihydrochloride)], the remaining activity at 1.25 µM in test [1] (Well no.=7139, low concentration screen) came to 99.3%. Also, the remaining activity at 3.75 µM in test [2] (Well no.=7139, high concentration screen) turned out to be 97%.

As for `Cc1ccc2c(c1)C(N1CCN(C)CC1)=Nc1cccnc1N2` [JL-18], in test [1] (Well no.=781, low concentration screen), the remaining activity at 1.25 µM is 107%. For the same compound, the remaining activity at 3.75 µM in test [2] (Well no.=781, high concentration screen) worked out at 103%.

As to `CO[C@H]1CC[C@@H](C(=O)c2ccc3nc4c(cc3c2)CCCO4)CC1` [JNJ16259685], the remaining activity at 1.25 µM in test [1] (Well no.=6955, low concentration screen) was 100%. Also, the remaining activity at 3.75 µM in test [2] (Well no.=6955, high concentration screen) amounted to 102%.

Take `Cn1cc(-c2ccc3nnc(C(F)(F)c4ccc5ncccc5c4)n3n2)cn1` [JNJ38877605]: the remaining activity at 1.25 µM in test [1] (Well no.=2887, low concentration screen) was 101%. In addition, the remaining activity at 3.75 µM in test [2] (Well no.=2887, high concentration screen) came to 102%.

As to `O=C(Nc1ccccc1)N1CCN(c2nc(-c3ccccc3)ns2)CC1` [JNJ 1661010], the remaining activity at 1.25 µM in test [1] (Well no.=5167, low concentration screen) turned out to be 98.1%. In addition, the remaining activity at 3.75 µM in test [2] (Well no.=5167, high concentration screen) is 104%.

On to `Nc1nc(Nc2ccc(S(N)(=O)=O)cc2)nn1C(=O)c1c(F)cccc1F` [JNJ-7706621], for which the remaining activity at 1.25 µM in test [1] (Well no.=8260, low concentration screen) is 91.9%. Also, the remaining activity at 3.75 µM in test [2] (Well no.=8260, high concentration screen) was 92%.

Consider `CN1CCN(C(=O)c2cc3cc(Cl)ccc3[nH]2)CC1` [JNJ-7777120], for which the remaining activity at 1.25 µM in test [1] (Well no.=5217, low concentration screen) stood at 101%; in test [1] (Well no.=6949, low concentration screen), 103%. Further, the remaining activity at 3.75 µM was found to be 104% in test [2] (Well no.=5217, high concentration screen) and 96% in test [2] (Well no.=6949, high concentration screen).

As to `Cn1cc(CNCC2CCN(c3ncc(C(=O)NO)cn3)CC2)c2ccccc21` [JNJ-26481585], the remaining activity at 1.25 µM in test [1] (Well no.=5224, low concentration screen) worked out at 98.6%. In addition, in test [2] (Well no.=5224, high concentration screen), the remaining activity at 3.75 µM amounted to 98.4%.

Consider `C[C@H](NC(=O)CNC(=O)c1cccc(Cl)c1)c1ccccc1` [JNJ-63533054], for which the remaining activity at 1.25 µM in test [1] (Well no.=8047, low concentration screen) is 98.3%. Also, the remaining activity at 3.75 µM in test [2] (Well no.=8047, high concentration screen) was 102%.

Regarding `N#Cc1c(NC(=O)c2cccc3ccccc23)sc2c1CCCC2` [JNK Inhibitor IX], the remaining activity at 1.25 µM in test [1] (Well no.=2518, low concentration screen) turned out to be 99.9%. In test [2] (Well no.=2518, high concentration screen), the remaining activity at 3.75 µM came out at 103%.

In the case of `CCOc1nc(NC(=O)Cc2cc(OC)ccc2OC)cc(N)c1C#N` [JNK Inhibitor VIII], in test [1] (Well no.=2550, low concentration screen), the remaining activity at 1.25 µM was determined as 99.5%. Besides, in test [2] (Well no.=2550, high concentration screen), the remaining activity at 3.75 µM was determined as 100%.

Turning to `Cn1nc2c3c(cccc31)C(=O)c1ccccc1-2` [JNK Inhibitor, Negative Control], the remaining activity at 1.25 µM in test [1] (Well no.=2514, low concentration screen) was determined as 91%. Further, the remaining activity at 3.75 µM in test [2] (Well no.=2514, high concentration screen) amounted to 92.4%.

`CCc1ccc(OCc2ccccc2C(=O)Nc2ccc3nc(C)cc(N)c3c2)cc1` [JTC-801]: the remaining activity at 1.25 µM was found to be 98.2% in test [1] (Well no.=5025, low concentration screen) and 95.7% in test [1] (Well no.=7002, low concentration screen). Moreover, the remaining activity at 3.75 µM in test [2] (Well no.=5025, high concentration screen) was 98.7%; in test [2] (Well no.=7002, high concentration screen), 91.5%.

As for `CCCn1c(C)c(C(=O)c2cccc3ccccc23)c2ccccc21` [JWH-015], the remaining activity at 1.25 µM in test [1] is 92.6%. In test [2], the remaining activity at 3.75 µM turned out to be 93.1%.

Regarding `CCCC(C)(C)c1ccc2c(c1)OC(C)(C)[C@@H]1CC=C(C)C[C@@H]21` [JWH-133], the remaining activity at 1.25 µM in test [1] was 102%. Besides, the remaining activity at 3.75 µM in test [2] worked out at 104%.

For the compound `O=C(Oc1ccc([N+](=O)[O-])cc1)N1CCC(C(O)(c2ccc3c(c2)OCO3)c2ccc3c(c2)OCO3)CC1` [JZL184], the remaining activity at 1.25 µM in test [1] (Well no.=8838, low concentration screen) was found to be 92.7%. In addition, the remaining activity at 3.75 µM in test [2] (Well no.=8838, high concentration screen) turned out to be 91.1%.

For the compound `O=C(Oc1ccc([N+](=O)[O-])cc1)N1CCN(Cc2cccc(Oc3ccccc3)c2)CC1` [JZL195], in test [1] (Well no.=5512, low concentration screen), the remaining activity at 1.25 µM came out at 107%. Besides, the remaining activity at 3.75 µM in test [2] (Well no.=5512, high concentration screen) was determined as 108%.

As to `CC1=C2C(=O)[C@H]3[C@@H](CC=C4C[C@@H](O)CC[C@@]43C)[C@@H]2CC[C@]12O[C@@H]1C[C@H](C)CN[C@H]1[C@H]2C` [Jervine], the remaining activity at 1.25 µM in test [1] (Well no.=3367, low concentration screen) was found to be 92%. Besides, the remaining activity at 3.75 µM in test [2] (Well no.=3367, high concentration screen) was 96.2%.

As for `COC(=O)[C@]1(O)C[C@@H]2O[C@@]1(C)n1c3ccccc3c3c4c(c5c6ccccc6n2c5c31)C(=O)NC4` [K-252a, Nocardiopsis sp.], the remaining activity at 1.25 µM in test [1] (Well no.=2552, low concentration screen) is 95.7%. In addition, the remaining activity at 3.75 µM in test [2] (Well no.=2552, high concentration screen) was 95.2%.

As for `C=CC(=O)N1CCN(C(=O)CNc2cc(I)c(Cl)cc2O)CC1` [K-Ras(G12C) inhibitor 12], in test [1] (Well no.=7951, low concentration screen), the remaining activity at 1.25 µM was 99.9%. In addition, in test [2] (Well no.=7951, high concentration screen), the remaining activity at 3.75 µM came out at 90.4%.
